Test results taken from patent US20150071954A1, “STABLE PEPTIDE MIMETICS OF THE HIV-1 GP41 PRE-HAIRPIN INTERMEDIATE” (priority 2012, published 2015).
No end group written: not given here.

Experiments:
HXB2 = assay type: cell-based, HIV-1; details: HeLa P4R5 cells, virus HXB2; read-out: p4/2R5 IC50 HXB2
Text: (§1) A number of different experimental methods can be used to determine whether or not a gp41 peptide mimetic can form a stable, faithful mimetic of said internal coiled-coil. For example, an assay designed to measure the ability of the conformationally constrained gp41 peptide mimetics to inhibit infectivity of HIV particles can be performed. In one such assay, HeLa cells stably expressing human CD4 and CCR5 receptors and harboring a β-galactosidase reporter gene driven by a tat-responsive fragment of HIV-2 LTR are infected with HIV-1 of various strains in the presence of gp41 peptide mimetics at varying concentrations. After incubating said cells for a specific period of time, the cells are lysed and β-galactosidase activity is quantified.
(§2) This neutralization assay was performed as previously described in Joyce et al., 2002, J Biol Chem 277:45811-45820 with the following modifications: HeLa P4R5 cells were seeded at 1000 cells/well in a 384-well plate and infected the following day with the appropriate HIV-1 or SHIV virus at a multiplicity of infection of approximately 0.01 in the presence of serial dilutions of immune sera or fractionated IgG 48 hours post infection, and cells were lysed and β-galactosidase activity was measured using a chemiluminescent substrate (GalScreen®, Applied Biosystems™, Life Technologies Corp., Carlsbad, Calif.). For analysis of purified IgG, the data are expressed as IC50, defined as the IgG concentration resulting in 50% reduction of chemiluminescence signal. For analysis of sera, the IC50 is defined as the reciprocal serum dilution resulting in 50% reduced chemiluminescence signal.

viral strain V570A = assay type: cell-based, HIV-1; details: HeLa P4R5 cells, virus V570A; read-out: p4/2R5 IC50 V570A
Text: as §1, §2

[1] = test system: D5 IgG binding to 5-helix (recombinant gp41 mimetic); test: D5/5-Helix Competitive Binding Assay (DCBA), peptide constructs; details: for IC50: competition for D5 binding to 5-helix, FRET
Experimental: An in vitro binding assay based on fluorescence resonance energy transfer (FRET) was performed as previously described in Caulfield et al., 2010, J Biol Chem 285:40604-40611. Briefly, the assay uses D5 IgG (see U.S. Pat. No. 7,744,887) conjugated to europium cryptate (Eu-D5) and a biotinylated derivative of the recombinant gp41 mimetic 5-helix (5H). Biotin-5H binds to a streptavidin-conjugated allophycocyanin (APC) substrate to form a 5H-SA-APC complex. Binding of Eu-D5 to 5H results in FRET from Eu to APC. When the reaction system is excited at a wavelength of 340 nm, the amount of bound Eu-D5 is measured at the emission wavelength of 665 nm, and total Eu is measured at the emission wavelength of 620 nm. Data are reported as 10000× the ratio of signal at 665 nm to signal at 620 nm. Agents that bind competitively to either component cause a decrease in the ratio value.

[2] = Analytical ultracentrifugation (oligomeric state); assay type: physicochemical; details: for AUC Ratio (observed to predicted Mw): AUC condition a: 25 mM Na Acetate, 0.15M NaCl, pH 4; for self-association from AUC ratio of observed to predicted molecular weight: monomeric peptides
Experimental: All analytical ultracentrifugation (AU) experiments were performed with a XL-I analytical ultracentrifuge (Beckman Coulter, Inc., Indianopolis, Ind.) at 20° C. For sedimentation velocity analysis, the samples were centrifuged at 48,000 rpm at 20° C. for 5 hours, with radial absorbance scans taken approximately every 4 minutes. g*(s) analysis was performed with the program DCDT+, version 2.2.1 (John Philo, Thousand Oaks, Calif.) or the Optima XL-I data analysis software (Beckman Coulter, Inc.). Sedimentation equilibrium experiments were conducted at three different loading concentrations and three different rotor speeds (16,000, 20,000, and 30,000). Molecular masses were calculated using the Optima XL-I data analysis software or using Heteroanalysis version 1.1.33 (from the Analytical Ultracentrifugation Facility, Biotechnology and Bioservices Center of the University of Connecticut).

[3] = Circular dichroism (secondary structure, thermal stability); assay type: physicochemical; details: pH 4, 20° C.
[4] = biological target: gp41 of HIV-1 virus V570A (HIV-1 isolate HXB2) (UniProt P04578); test: cell-based or functional assay
[5] = biological target: gp41 of HIV-1 virus HXB2 (HIV-1 isolate HXB2) (UniProt P04578); test: cell-based or functional assay
[6] = biological target: the molecule itself; test: analytical ultracentrifugation (ratio of observed to predicted molecular weight); self-association
gp41 of HIV-1 virus HXB2 = gp41 of HIV-1 virus HXB2 (HIV-1 isolate HXB2, UniProt P04578 512-856); test: cell-based or functional assay
[7] = biological target: gp41 of HIV-1 virus V570A (HIV-1 isolate HXB2, UniProt P04578 512-856); test: cell-based or functional assay
[8] = CD condition a: 50 mM Na Acetate, 0.15M NaCl

## Ac-QARQLLSGIVQQQNNLLRAIEAQQHALQLTVWGIKQLQARILAVERYLKDQ-NH2 (N-terminus assumed) [Peptide N51-3B]
HXB2
  IC50: 107 nM
Viral strain V570A
  IC50: 49.3 nM
[1]
  effect of mutations on D5 binding in DCBA: apparent negative impact
  IC50: > 300 nM
[2]
  AUC Ratio (observed to predicted Mw): 3.3
  self-association from AUC ratio of observed to predicted molecular weight: strong preference for self-association
[3]; [8]
  CD % (-helix): 105%

## Ac-QIRELISKIVEQINNILRAIEAQQHALQLTVWGIKQLQARILAVERYLKDQ-NH2 (N-terminus assumed) [Peptide N51-2B]
HXB2
  IC50: 60.9 nM
Viral strain V570A
  IC50: 33.4 nM
[1]
  effect of mutations on D5 binding in DCBA: apparent negative impact
  IC50: > 300 nM
[2]
  AUC Ratio (observed to predicted Mw): 3.6
  self-association from AUC ratio of observed to predicted molecular weight: strong preference for self-association
[3]; [8]
  CD % (-helix): 97%

## D5 IgG (antibody)
[4]
  p4/2R5 IC50 (nM), V570A: 61.7 nM
[5]
  p4/2R5 IC50 (nM), HXB2: 179 nM

## KTA(N51-3B)3: three thiol tagged monomeric N51-3B peptides ligated on trivalent bromide scaffold KTA-Br (QARQLLSGIVQQQNNLLRAIEAQQHALQLTVWGIKQLQARILAVERYLKDQ-NH2; not fully specified (N-terminus); also: trimer: three S-acetylglycolic thiol-tagged N51-3B ligated on trivalent bromide scaffold KTA-Br)
[1]
  IC50: 38.4 nM
[2]; pH 7
  AUC Observed Mw: precipitation: ppt (pH 7)
[3]; CD condition c: 25 mM Na Acetate
  CD % (-helix): 88%

B1: N51-2B (L′583) (peptide)
peptide: QIRELISKIVEQINNILRAIEAQQHALQLTVWGIKQLQARILAVERYLKDQ
modifications: not fully specified (C-terminus)
notes: Monomeric synthetic peptide made on Rink amide resin; Self-associates in solution
[6]
  binding result: binds
gp41 of HIV-1 virus HXB2
  p4/2R5 IC50 (nM), HXB2: 60.9 nM
[7]
  p4/2R5 IC50 (nM), V570A: 33.4 nM

B2: N51-3B (L′584) (peptide)
peptide: QARQLLSGIVQQQNNLLRAIEAQQHALQLTVWGIKQLQARILAVERYLKDQ
notes: Monomeric synthetic peptide
[6]
  binding result: binds
gp41 of HIV-1 virus HXB2
  p4/2R5 IC50 (nM), HXB2: 107 nM
[7]
  p4/2R5 IC50 (nM), V570A: 49.3 nM

B3: KTA(N51-3B)3 (L′510) (peptide)
peptide: QARQLLSGIVQQQNNLLRAIEAQQHALQLTVWGIKQLQARILAVERYLKDQ
modifications: not fully specified (N-terminus); also: covalent trimer of three N51-3B peptides on Kemp's triacid scaffold
gp41 of HIV-1 virus HXB2
  p4/2R5 IC50 (nM), HXB2: 79.4 nM
[7]
  p4/2R5 IC50 (nM), V570A: 29.1 nM
